Experiments:
Ku-812 = assay: Inhibition of cell proliferation (MTT); type: cell-based; conditions: Homo sapiens, KU812; Ku-812, Leukemia; 48 hours
Procedure: (§1) Inhibition of cell proliferation is determined in human tumor cell lines. Innoculation density and doubling times for specific cell lines are listed at World Wide Web URL “dtp.nci.nih.gov/docs/misc/common_files/cell_list.html.”
(§2) • 1. Plate adherent cells the day before starting the experiment in 180 μl growth media (see list hereafter). • 2. Day of experiment, count and plate suspension cells in 180 μl growth media (see list on next page). • 3. Make 10× Compound, vehicle, and chemotherapeutic cocktail • a. Compound (1× to 10×) • i. 10 μM Compound to 100 μM • ii. 3 μM Compound to 30 μM • iii. 1 μM Compound to 10 μM • iv. 0.3 μM Compound to 3 μM • v. 0.1 μM Compound to 1 μM • b. Vehicle • i. PBS, equivalent to the volume used for 10 μM Compound (1× is ˜0.06% PBS) • c. Chemotherapeutic cocktail (1× to 10×): • i. 1 μM Velcade to 10 μM • ii. 100 μM Etoposide to 1 mM • iii. 20 μM Taxol to 200 μM • 4. Add 20 μl of the 10× compound/vehicle/chemotherapeutic cocktail to cells. • 5. Incubate at 37° C., 5% CO2 for 48 hours. • 6. Aspirate media. For suspension cells, spin plate at 1500 RPM for 10 minutes. Use a multichannel pipettor to slowly remove media. • 7. Add 200 μl of Thiazolyl Blue Tetrazolium Bromide (MTT) to each well: 0.863 mg/ml MTT in growth media.
(§3) Proliferation of several cancer cells was inhibited by compound TA1-1B (which is a particular mixture of the isomers represented by TA1-1A), as shown in the following table (Table 1). The value EC50 is the amount of Compound TA1-1B that results in 50% inhibition of proliferation of the indicated cell type.

J45-01 = assay: Inhibition of cell proliferation (MTT); type: cell-based; conditions: Homo sapiens; J45-01, Leukemia; 48 hours
Procedure: as §1, §2, §3

TK-10 = assay: Inhibition of cell proliferation (MTT); type: cell-based; conditions: Homo sapiens; TK-10, Renal; 48 hours
Procedure: as §1, §2, §3

HCT-15 = assay: Inhibition of cell proliferation (MTT); type: cell-based; conditions: Homo sapiens; HCT-15, Colon; 48 hours
Procedure: as §1, §2, §3

OVCAR-4 = assay: Inhibition of cell proliferation (MTT); type: cell-based; conditions: Homo sapiens; OVCAR-4, Ovarian; 48 hours
Procedure: as §1, §2, §3

COLO 205 = assay: Inhibition of cell proliferation (MTT); type: cell-based; conditions: Homo sapiens; COLO 205, Colon; 48 hours
Procedure: as §1, §2, §3

Namalwa = assay: Inhibition of cell proliferation (MTT); type: cell-based; conditions: Homo sapiens, Lymphoma, 48 hours
Procedure: as §1, §2, §3

THP-1 = assay: Inhibition of cell proliferation (MTT); type: cell-based; conditions: Homo sapiens; THP-1, Leukemia; 48 hours
Procedure: as §1, §2, §3

NCI/ADR-RES = assay: Inhibition of cell proliferation (MTT); type: cell-based; conditions: Homo sapiens, Breast, 48 hours
Procedure: as §1, §2, §3

SN12C = assay: Inhibition of cell proliferation (MTT); type: cell-based; conditions: Homo sapiens, Renal, 48 hours
Procedure: as §1, §2, §3

UACC-62 = assay: Inhibition of cell proliferation (MTT); type: cell-based; conditions: Homo sapiens; UACC-62, Melanoma; 48 hours
Procedure: as §1, §2, §3

HL-60(TB) = assay: Inhibition of cell proliferation (MTT); type: cell-based; conditions: Homo sapiens, Leukemia, 48 hours
Procedure: as §1, §2, §3

KM12 = assay: Inhibition of cell proliferation (MTT); type: cell-based; conditions: Homo sapiens; KM12, Colon; 48 hours
Procedure: as §1, §2, §3

MC116 = assay: Inhibition of cell proliferation (MTT); type: cell-based; conditions: Homo sapiens; MC116, Lymphoma; 48 hours
Procedure: as §1, §2, §3

RPMI-6666 = assay: Inhibition of cell proliferation (MTT); type: cell-based; conditions: Homo sapiens; RPMI-6666, Lymphoma; 48 hours
Procedure: as §1, §2, §3

EKVX = assay: Inhibition of cell proliferation (MTT); type: cell-based; conditions: Homo sapiens, Non Small Cell Lung, 48 hours
Procedure: as §1, §2, §3

MCF7 = assay: Inhibition of cell proliferation (MTT); type: cell-based; conditions: Homo sapiens; MCF7, Breast; 48 hours
Procedure: as §1, §2, §3

NK92MI = assay: Inhibition of cell proliferation (MTT); type: cell-based; conditions: Homo sapiens, Lymphoma, 48 hours
Procedure: as §1, §2, §3

HH = assay: Inhibition of cell proliferation (MTT); type: cell-based; conditions: Homo sapiens, Lymphoma, 48 hours
Procedure: as §1, §2, §3

MOLT-4 = assay: Inhibition of cell proliferation (MTT); type: cell-based; conditions: Homo sapiens; MOLT-4, Leukemia; 48 hours
Procedure: as §1, §2, §3

MEG-01 = assay: Inhibition of cell proliferation (MTT); type: cell-based; conditions: Homo sapiens; MEG-01, Leukemia; 48 hours
Procedure: as §1, §2, §3

I 9.2 = assay: Inhibition of cell proliferation (MTT); type: cell-based; conditions: Homo sapiens; I 9.2, Leukemia; 48 hours
Procedure: as §1, §2, §3

ST486 = assay: Inhibition of cell proliferation (MTT); type: cell-based; conditions: Homo sapiens; ST486, Lymphoma; 48 hours
Procedure: as §1, §2, §3

bone marrow cells (BMCs) = assay: RNA synthesis and cell viability of bone marrow cells from treated rats; type: in vivo; conditions: 10 mg/kg daily for 5 days, BMCs isolated 24 hours after last dose
Procedure: Rats were treated with 10 milligrams per kilogram of Compound TA1-1B daily for five (5) days. Twenty-four (24) hours after the last dose the bone marrow was isolated, and bone marrow cells (BMCs) were tested for RNA synthesis activity and cell viability
The following process was utilized to measure total RNA synthesis. For animals treated with compound TA1-1B, BMCs were isolated and plated overnight at 100,000 cells per mL. Next day cells were incubated for one hour with 5 μCi of [^3H]-uridine. To measure total RNA synthesis, total RNA from treated cells was isolated with a RNease kit (QIAGEN), levels of total RNA were assessed with Ribogreen reagent (Invitrogen) and the newly synthesized tritiated RNA was measured in a scintillation Counter (Perkin Elmer) in a tritium channel.
The following process was utilized to measure cell viability, which involves the use of an Alamar Blue dye. Cells are counted using a hemocytometer, and 4,000-5,000 cells (per well) in 100 microliter of medium are seeded into wells 96-well plate. […] Fluorescence is recorded at an excitation wavelength of 544 nm and emission wavelength of 590 nm using a microplate reader. Fluorescence of […] dye is detected and effects of drug treatment on BMC viablity is determined.

CN1CCC[C@H]1CCNC(=O)c1cn2c3c(c(N4CCC(c5cnccn5)C4)c(F)cc3c1=O)Oc1cc3ccccc3cc1-2 (stereo partly drawn) [TA1-1B]
EC50 (Ku-812): 4.19 µM
EC50 (J45-01): 1.89 µM
EC50 (TK-10): 3.33 µM
EC50 (HCT-15): 1.51 µM
EC50 (OVCAR-4): 2.96 µM
EC50 (COLO 205): 0.707 µM
EC50 (Namalwa): 1.42 µM
EC50 (THP-1): 3.18 µM
EC50 (NCI/ADR-RES): 1.62 µM
EC50 (SN12C): 4.16 µM
EC50 (UACC-62): 4.88 µM
EC50 (HL-60(TB)): 1.65 µM
EC50 (KM12): 3.06 µM
EC50 (MC116): 3.87 µM
EC50 (RPMI-6666): 1.59 µM
EC50 (EKVX): 5.67 µM
EC50 (MCF7): 3.46 µM
EC50 (NK92MI): 1.3 µM
EC50 (HH): 4.04 µM
EC50 (MOLT-4): 1.21 µM
EC50 (MEG-01): 6 µM
EC50 (I 9.2): 3.69 µM
EC50 (ST486): 1.28 µM
Toxicity to bone marrow cells (RNA synthesis and cell viability) (bone marrow cells (BMCs)): not toxic

Reference: US20080318938A1, “METHODS FOR TREATING ABERRANT CELL PROLIFERATION DISORDERS” (priority 2007, published 2008)
